Earlier results, collected in US10183028B2, “Enrichment method of ergosterol peroxide from sporoderm-broken Ganoderma lucidum spore powder” (Guangzhou Polysarm Bioscience Corp., priority 2015, dated 2019).

Assays:
[1] = tested on: human breast cancer and liver cancer; conditions: Chinese application 200610126091.9
[2] = tested on: Hela cancer cells; conditions: Chinese application 201410311586.3
[3] = tested on: drug-resistant brain tumor stem cells; conditions: Chinese application 201210233192.1
[4] = tested on: lymphoma cancer cells (Jurkat); conditions: Chinese application 201210233192.1
[5] = tested on: formation of melanin; conditions: Chinese application 01817014.5
[6] = tested on: fungal; conditions: Chinese application 200810119948.3
[7] = tested on: pieris rapae; conditions: Chinese application 01817014.5
[8] = tested on: malignant breast cancer cells (MT-1); conditions: Chinese application 201210233192.1
[9] = tested on: aphid; conditions: Chinese application 01817014.5
[10] = tested on: brain tumor cells (U87); conditions: Chinese application 201210233192.1
[11] = tested on: prodenia litura; conditions: Chinese application 01817014.5

## CC(C)[C@@H](C)C=C[C@@H](C)[C@H]1CC[C@@H]2[C@]1(C)CC[C@H]1[C@]23C=C[C@]2(C[C@@H](O)CC[C@]12C)OO3 [Ergosterol peroxide, 5α,8α-Epidioxyergosta-6,22-dien-3β-ol]
[1]
  harmful effects on immune organs and weight: no harmful effects
[1]; human breast cancer and liver cancer
  anti-tumor pharmacological activity: significant anti-tumor
[2]
  synergy with taxol in killing or damaging Hela cancer cells: synergy with taxol
[3]
  killing of drug-resistant brain tumor stem cells: kills
[4]
  inhibitory effect on lymphoma cancer cells (Jurkat): significant inhibitory effect
[5]
  inhibitory effects on the formation of melanin: strong inhibitory effects
[6]
  antifungal bioactivity: remarkable antifungal bioactivity
[7]
  poisoning effects on agricultural pests: poisoning effects
[8]
  inhibitory effect on malignant breast cancer cells (MT-1): significant inhibitory effect
[9]
  poisoning effects on agricultural pests: poisoning effects
[10]
  inhibitory effect on brain tumor cells (U87): significant inhibitory effect
[11]
  poisoning effects on agricultural pests: poisoning effects
